According to US9708305B2, “Substituted 1,2,3,4-tetrahydroisoquinoline derivatives for the treatment of hormone-dependent diseases” (UNIVERSITÉ LAVAL, priority 2013, dated 2017):

Experiments:
Saos-2 (ER+) cells = experiment: Proliferative activity on Saos-2 (ER+) cells, phenol library; format: cell-based; conditions: 1 μM (stated for reference compounds); 7 days; control 100%
Protocol: Estrogens are known to have a beneficial effect on bones. […] The phenol derivatives 3′-EO-09 to 3′-EO-11 and 3′-EO-14 to 3′-EO-17 were tested on the osteoblast-like cell line Saos-2 to further evaluate their SERM capacity (FIG. 13A).
The osteoblast-like Saos-2 cells were maintained in culture flasks (175 cm^2 growth area, BD Falcon) at 37° C. in a 5% CO2 humidified atmosphere and grown in McCoy's 5A medium supplemented with 10% fetal bovine serum (FBS), penicillin (100 IU/mL) and streptomycin (100 μg/mL). Penicillin/streptomycin mix, L-Glutamine, normal and charcoal-stripped FBS were purchased from Wisent, Inc. (St-Bruno, QC, Canada), phenol-red free McCoy's 5A was purchased from PromoCell (Heidelberg, Germany). Chemicals tested were first dissolved in DMSO and subsequent dilutions were done in the cell culture medium. The final concentration of DMSO in the culture medium was 0.1% or less. For the proliferation assay, the […] FBS in the culture medium was replaced with 10% charcoal-stripped FBS. The cells were seeded in 96-well plates at a density of 10 000 cells/well and allowed to attach 24 h. After 24 h, the phenolic compounds diluted in culture medium were added to the wells and replaced every 2 days for 7 days of treatment. As reported above, MTS was used as an indirect colorimetric measurement of cell proliferation according to the manufacturer's instructions, except the plate were incubated 2 h instead of 4 h.

[1] = system: alkaline phosphatase activity in Saos-2 cells; experiment: Alkaline phosphatase assay (Saos-2 cells), phenol library; format: cell-based; conditions: 1 nM; control (no treatment) fixed at 100%
Protocol: We also investigated the effect of selected phenol derivatives on alkaline phosphatase activity in Saos-2 cells (FIG. 13B).
Saos-2 cells were used similarly as reported in the cell proliferation assay. The cells were seeded at a density of 2 000 cells/well and treated for 3 days with each compound to be tested. The alkaline phosphatase (ALP) activity was measured using the Sensolyte® pNPP Alkaline Phosphatase Assay Kit *Colorimetric* (AnaSpec, Freemont, Calif.) following the manufacturer's protocol. Briefly, after three days of treatment, the cells were washed twice with washing buffer (provided with the kit) and lysed with 0.2% Triton X-100. The cell lysates were centrifuged and the supernatants were used to determine ALP activity. The supernatants were deposed in a 96-well plate and incubated for 30 minutes with a p-nitrophenyl phosphate solution (provided with the kit). The absorbance at 405 nm was measured with a Thermo max microplate reader (Molecular Devices, Sunnyvale, Calif.). The control (culture media+DMSO) is set to 100% of alkaline phosphatase activity.

[2] = system: uterus weight of ovariectomized mice (OVX); conditions: cited from earlier work
[3] = system: AR+ tissues (prostate and seminal vesicles); conditions: cited from earlier work
steroid sulfatase (STS) = target: T1, steroid sulfatase (STS) (Homo sapiens, UniProt P08842); experiment: Steroid sulfatase (STS) inhibition, [3H]-E1S to [3H]-E1, homogenate of transfected HEK-293 cells; format: biochemical; conditions: transformation of E1S into E1 in homogenate of HEK-293 cells transfected with STS; read-out: Steroid Sulfatase Inhibition IC50
T1 construct: expressed in transfected cells; host or cells: HEK-293 cells stably transfected with STS (G418 selection), obtained from Dr. Van Luu-The; used as freeze-thaw homogenate
T1 sequence (P08842 22-583): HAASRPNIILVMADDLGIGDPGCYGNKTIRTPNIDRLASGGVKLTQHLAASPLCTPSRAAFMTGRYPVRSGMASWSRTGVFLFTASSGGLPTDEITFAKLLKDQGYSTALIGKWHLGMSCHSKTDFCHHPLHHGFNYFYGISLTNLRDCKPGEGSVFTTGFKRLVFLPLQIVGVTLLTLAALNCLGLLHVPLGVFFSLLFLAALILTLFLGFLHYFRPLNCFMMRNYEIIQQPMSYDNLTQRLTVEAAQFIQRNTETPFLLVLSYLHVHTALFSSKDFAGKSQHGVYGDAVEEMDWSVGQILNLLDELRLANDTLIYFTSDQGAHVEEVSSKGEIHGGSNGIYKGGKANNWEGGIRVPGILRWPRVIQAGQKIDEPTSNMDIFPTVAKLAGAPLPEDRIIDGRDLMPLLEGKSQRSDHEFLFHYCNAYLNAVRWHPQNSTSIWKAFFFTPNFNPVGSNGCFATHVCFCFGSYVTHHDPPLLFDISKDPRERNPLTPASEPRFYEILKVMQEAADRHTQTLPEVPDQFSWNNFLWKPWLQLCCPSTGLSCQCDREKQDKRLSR
Protocol: To test STS inhibition, we used homogenated HEK-293 cells overexpressing STS and evaluated the capacity of our compounds to inhibit the conversion of [^3H]-E1S into [^3H]-E1. […] This is outlined in FIG. 5.
An enzymatic assay previously described was used for the inhibition of the transformation of estrone sulfate (E1S) to estrone (E1) by STS.^72 Briefly, the transfected HEK-293 cells were homogenized by repeated (5 times) cycles of freezing (−80° C.) and thawing on ice (4° C.). The homogenates were then incubated for 2 h at 37° C. (shaking water bath) with or without inhibitors (0.01 μM-1 μM) in presence of [^3H]-E1S (9 nM), adjusted to 1 μM with E1S, in a Tris-acetate buffer (pH 7.4) containing 5 mM EDTA and 10% glycerol. After the incubation, 1 mL of xylene was added to each tube and the solutions were then centrifuged at 3000 rpm for 20 min to separate the organic ([^3H]-E1) and aqueous ([^3H]-E1S) phases. Once 500 μL of each phase was added to 10 mL of Biodegradable Counting Scintillant, the radioactivity of samples was recorded using a Wallac 1411 Liquid Scintillation Counter. The percentage of inhibition was determined by comparison with the control (buffer+homogenate+[^3H]-E1S) which was set to 0% of inhibition. IC50 value was obtained using GraphPad Prism 5 (GraphPad Software, La Jolla, Calif.).

[4] = system: alkaline phosphatase (ALP) activity in Saos-2 cells; experiment: Alkaline phosphatase (ALP) activity in Saos-2 cells; format: cell-based
Protocol: ALP is an enzyme that releases inorganic phosphate from different intracellular substrates such as pyrophosphate and pyridoxal 5′-phosphate.^63 The inorganic phosphate is used in the formation of hydroxyapatite crystals which are then inserted in the extracellular protein scaffold to form the solid part of bone tissue.
Saos-2 cells were treated similarly as reported in the cell proliferation assay. The cells were seeded at a density of 2 000 cells/well and were treated with the inhibitors and the reference compounds for 3 days. The alkaline phosphatase (ALP) activity was measured using Sensolyte® pNPP Alkaline Phosphatase Assay Kit *Colorimetric* (AnaSpec, Fremont, Calif.) following the manufacturer's protocol. Briefly, after the 3 days of treatment, the cells were washed twice with washing buffer (provided with the kit) and lysed with 0.2% Triton X-100. The cell lysates were centrifuged and the supernatants were used to determine the ALP activity. The supernatants were deposed in a 96-well plate and incubated 30 min with a p-nitrophenyl phosphate solution (provided with the kit). The absorbance at 405 nm was measured with a Thermo max microplate reader (Molecular Devices, Sunnyvale, Calif.). The control (culture media+DMSO) is set to 100% of alkaline phosphatase activity.

[5] = system: osteoblast-like Saos-2 cells; experiment: Saos-2 cell proliferation, MTS; format: cell-based; conditions: for Bone cells Saos-2 (ER+) SERM effect Proliferative activity (%): in percentage of control (100%; 0.1 nM of estradiol)
From the text: First, we wanted to evaluate their effect on cell proliferation. […] This is outlined in FIG. 8A. […] One of the main roles of osteoblasts in bone tissue is to construct a calcified extracellular matrix.^15 As such, bone formation is not principally due to osteoblasts proliferation but rather osteoblasts maturation into mature osteocytes. […] This is outlined in FIG. 8B.
(§1) CellTitter 96® Aqueous One Solution Cell Proliferation Assay was used as an indirect colorimetric measurement of cell proliferation according to the manufacturer's instructions. Briefly, after the treatments, 20 μL of MTS solution was added to each well (100 μL) of the plates and incubated at 37° C. for 2 h (Saos-2) or 4 h (T-47D). The absorbance at 490 nm was then measured with a Thermo max microplate reader (Molecular Devices, Sunnyvale, Calif.). The control (culture media+DMSO) is set to 100% of cell proliferation.
Saos-2 cells were suspended in phenol-red free McCoy's 5A medium supplemented with 10% charcoal-stripped FBS, penicillin (100 IU/mL) and streptomycin (100 μg/mL). The cells were seeded in 96-well plates at a density of 3 000 cells/well and allowed to attach. After 24 h, the inhibitors and the reference compounds diluted in fresh culture media were added to the wells and replaced every 2 days for 7 days of treatment.

T-47D cells [6] = experiment: T-47D cell proliferation in presence of E2 (antiestrogenicity); format: cell-based
Protocol: as §1
(§2) The cells were plated in 96-well plates at a density of 3 000 cells/well and allowed to attach for 48 h. After this pre-incubation, the inhibitors and the reference compounds diluted in fresh culture media were added to the wells and replaced every 2 days for 7 days of treatment.

T-47D cells [7] = experiment: T-47D cell proliferation (estrogenicity / cytotoxicity), MTS; format: cell-based
Protocol: The library of phenolic compounds described above was tested on estrogen-sensitive breast cancer T-47D cells.
In Table 1, cell proliferation of control cells is set to 100%. Results are expressed as mean±SD of one experiment in triplicate.
as §1, §2

[8] = 1 μM, in % of control (100%; 0.1 nM of estradiol)

Row | Structure (SMILES) | proliferation of Saos-2 cells (Saos-2 (ER+) cells) | ALP activity in Saos-2 cells [1] | estrogenic activity: uterus weight of OVX mice ([2]; compound alone) | stimulation of uterine weight induced by E1S in OVX mice ([2]; with E1S) | androgenic effect in the absence of DHEAS ([3]; injected in the absence of DHEAS) | effect of DHEAS on the weight of AR+ tissues (prostate and seminal vesicles) ([3]; with DHEAS) | IC50 (steroid sulfatase (STS)) | Bone cells Saos-2 (ER+) SERM effect Alkaline phosphatase activity (%) ([4]; 0.1 nM) | stimulation of ALP activity in presence of ICI-164,384 or MPP + PHTPP ([4]; 0.1 nM compound, antagonists 1 μM, 3 days) | Saos-2 cell proliferation, dose response ([5]; 1 nM to 1 μM, 7 days) | Bone cells Saos-2 (ER+) SERM effect Proliferative activity (%) ([5]; 0.1 μM) | Bone cells Saos-2 (ER+) SERM effect Proliferative activity (%) ([5]; 1 μM) | block of E2 stimulation of T-47D proliferation (T-47D cells [6]; 0.01 μM to 1 μM, E2 0.1 nM) | Breast cancer cells T-47D (ER+) Antagonist activity (%) (T-47D cells [6]; [8]) | cytotoxicity on T-47D cells in presence of E2 (T-47D cells [6]; 5 μM, E2 0.1 nM) | estrogenic activity on T-47D cells (T-47D cells [7]; 0.01 μM to 5 μM, 7 days) | Breast cancer cells T-47D (ER+) Agonist activity (%) (T-47D cells [7]; [8]) | cytotoxicity on T-47D cells (T-47D cells [7]; 5 μM)
1 | CCN(Cc1ccc(C(=O)N2CCc3ccc(O)cc3C2)cc1)Cc1ccccn1 [3′-EO-14] | 140% | 147% |  |  |  |  |  |  |  |  |  |  |  |  |  |  |  | 
2 | COc1cc2c(cc1OS(N)(=O)=O)CC[C@@H]1[C@@H]2CC[C@@]2(C)[C@H]1CC[C@@]2(O)Cc1ccccc1 [EM-1913, 3-O-sulfamate 17α-benzyl-2-methoxy-estra-1,3,5(10)-trien-17β-ol] |  |  | did not stimulate the uterus weight | effectively blocked | No more harmful androgenic effect was detected | block the effect of DHEAS |  |  |  |  |  |  |  |  |  |  |  | 
3 | Cl.O=C(c1ccc(OCCN2CCCCC2)cc1)c1c(-c2ccc(O)cc2)sc2cc(O)ccc12 [raloxifene, Raloxifene hydrochloride, reference compound] | 123% |  |  |  |  |  | > 1000 nM | 86% | completely blocked the stimulation | apparent dose-dependent response | 75% | 83% | able to block the E2 stimulation | 96% | some cytotoxicity | no estrogenic activity | 0% | induced some cytotoxicity
